Test [1] addresses Tyrosine-protein kinase JAK1 (Homo sapiens, UniProt P23458). The test is described as follows: JAK1, JAK2, and JAK3 Activity. As to the method:
(§1) Compounds described herein were tested for the ability to inhibit activity of human JAK1, JAK2 and JAK3, which was achieved using TR-FRET assays. Briefly, the Kinases JAK1 (2.5 nM), JAK2 (0.025 nM) and JAK3 (0.0125 nM) were incubated with a series of concentrations of the test compound in the presence of […] (biotin-ahx- […]-CONH2), 2 nM Eu-labeled anti-pTYRPY20 and 80 nM Streptavidin APC. After 30 min incubation at RT, ATP ([…] respectively for JAK1, JAK2 and JAK3) was added to start the reaction, and incubated for 80 min at RT. The reaction was stopped by adding detection buffer and incubated for a further 60 min at RT. The samples were analyzed using Envision to calculate % inhibition at each of the series of concentrations of the test compound. The IC50 value of the compounds for each of the kinases were calculated using XLFit software.

Test [2] concerns the target T1, Tyrosine-protein kinase JAK3 (Homo sapiens, UniProt P52333).
T1 sequence (P52333 whole entry): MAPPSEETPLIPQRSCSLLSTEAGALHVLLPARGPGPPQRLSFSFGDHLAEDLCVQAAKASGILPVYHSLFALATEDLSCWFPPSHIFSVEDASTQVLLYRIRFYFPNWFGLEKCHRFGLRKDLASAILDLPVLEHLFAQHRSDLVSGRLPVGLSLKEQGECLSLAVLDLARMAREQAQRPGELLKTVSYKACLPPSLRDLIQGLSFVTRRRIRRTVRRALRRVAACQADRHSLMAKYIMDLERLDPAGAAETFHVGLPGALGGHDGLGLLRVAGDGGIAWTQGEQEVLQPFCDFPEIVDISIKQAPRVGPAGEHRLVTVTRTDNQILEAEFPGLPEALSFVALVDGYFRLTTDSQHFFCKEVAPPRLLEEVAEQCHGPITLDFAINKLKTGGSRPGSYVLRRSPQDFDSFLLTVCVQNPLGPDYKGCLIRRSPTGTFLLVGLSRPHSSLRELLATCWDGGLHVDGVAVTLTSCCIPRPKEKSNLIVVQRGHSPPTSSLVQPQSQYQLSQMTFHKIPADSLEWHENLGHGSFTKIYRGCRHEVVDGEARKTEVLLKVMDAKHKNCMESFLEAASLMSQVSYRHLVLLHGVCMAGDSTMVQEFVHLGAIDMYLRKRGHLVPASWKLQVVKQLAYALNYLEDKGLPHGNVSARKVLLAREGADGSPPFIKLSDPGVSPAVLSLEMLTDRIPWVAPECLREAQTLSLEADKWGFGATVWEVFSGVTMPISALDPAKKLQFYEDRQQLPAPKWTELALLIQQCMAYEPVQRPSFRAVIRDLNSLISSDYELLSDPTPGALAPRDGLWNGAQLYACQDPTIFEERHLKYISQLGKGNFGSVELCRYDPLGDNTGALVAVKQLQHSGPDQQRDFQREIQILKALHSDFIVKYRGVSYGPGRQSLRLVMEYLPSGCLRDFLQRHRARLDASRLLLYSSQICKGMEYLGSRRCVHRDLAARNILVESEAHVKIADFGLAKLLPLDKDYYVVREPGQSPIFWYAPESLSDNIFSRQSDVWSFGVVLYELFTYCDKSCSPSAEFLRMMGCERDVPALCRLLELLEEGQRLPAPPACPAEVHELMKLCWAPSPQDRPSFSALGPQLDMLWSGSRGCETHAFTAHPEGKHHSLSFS
The test is described as follows: JAK1, JAK2, and JAK3 Activity. As to the method: as §1

The nature of test [3]: JAK1, JAK2, and JAK3 Activity.
The target in test [4] is Tyrosine-protein kinase JAK2 (Homo sapiens, UniProt O60674). Nature of the test: JAK1, JAK2, and JAK3 Activity. The procedure: as §1
Sequence of Tyrosine-protein kinase JAK2 (O60674 whole entry): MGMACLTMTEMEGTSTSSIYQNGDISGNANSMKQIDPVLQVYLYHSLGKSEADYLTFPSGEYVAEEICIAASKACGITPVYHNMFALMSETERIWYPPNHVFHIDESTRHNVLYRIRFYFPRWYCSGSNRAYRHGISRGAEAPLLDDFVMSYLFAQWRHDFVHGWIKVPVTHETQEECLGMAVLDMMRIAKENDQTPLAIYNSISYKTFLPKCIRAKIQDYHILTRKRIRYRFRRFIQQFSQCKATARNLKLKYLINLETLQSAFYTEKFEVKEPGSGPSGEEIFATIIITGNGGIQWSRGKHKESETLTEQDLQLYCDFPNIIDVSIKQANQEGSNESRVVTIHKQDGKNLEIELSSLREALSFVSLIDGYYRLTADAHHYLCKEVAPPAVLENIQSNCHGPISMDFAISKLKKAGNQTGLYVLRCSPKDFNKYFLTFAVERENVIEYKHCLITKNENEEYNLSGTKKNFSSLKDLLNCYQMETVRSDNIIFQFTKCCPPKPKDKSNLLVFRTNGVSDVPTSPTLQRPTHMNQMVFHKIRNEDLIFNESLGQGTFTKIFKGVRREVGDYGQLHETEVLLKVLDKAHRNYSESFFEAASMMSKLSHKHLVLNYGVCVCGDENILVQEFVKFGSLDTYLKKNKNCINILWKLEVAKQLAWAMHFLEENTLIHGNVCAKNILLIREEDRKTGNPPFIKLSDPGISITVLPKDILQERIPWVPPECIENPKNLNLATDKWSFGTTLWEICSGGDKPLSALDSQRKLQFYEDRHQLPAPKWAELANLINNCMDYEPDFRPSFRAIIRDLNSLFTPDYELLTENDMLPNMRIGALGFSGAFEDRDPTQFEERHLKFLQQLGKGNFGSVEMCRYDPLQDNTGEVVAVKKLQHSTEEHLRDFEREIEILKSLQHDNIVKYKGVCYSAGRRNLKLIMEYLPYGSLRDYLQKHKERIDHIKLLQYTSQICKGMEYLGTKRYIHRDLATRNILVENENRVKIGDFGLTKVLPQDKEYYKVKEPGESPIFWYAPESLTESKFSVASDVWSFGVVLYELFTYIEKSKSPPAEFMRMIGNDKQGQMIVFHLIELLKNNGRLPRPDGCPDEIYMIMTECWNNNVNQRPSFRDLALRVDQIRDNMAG

Each structure is given as a SMILES string.

What is called IC50 is the concentration at which inhibition is half-maximal. The low end stands for higher potency, the high end for lower potency.

Sequence of Tyrosine-protein kinase JAK1 (P23458 whole entry): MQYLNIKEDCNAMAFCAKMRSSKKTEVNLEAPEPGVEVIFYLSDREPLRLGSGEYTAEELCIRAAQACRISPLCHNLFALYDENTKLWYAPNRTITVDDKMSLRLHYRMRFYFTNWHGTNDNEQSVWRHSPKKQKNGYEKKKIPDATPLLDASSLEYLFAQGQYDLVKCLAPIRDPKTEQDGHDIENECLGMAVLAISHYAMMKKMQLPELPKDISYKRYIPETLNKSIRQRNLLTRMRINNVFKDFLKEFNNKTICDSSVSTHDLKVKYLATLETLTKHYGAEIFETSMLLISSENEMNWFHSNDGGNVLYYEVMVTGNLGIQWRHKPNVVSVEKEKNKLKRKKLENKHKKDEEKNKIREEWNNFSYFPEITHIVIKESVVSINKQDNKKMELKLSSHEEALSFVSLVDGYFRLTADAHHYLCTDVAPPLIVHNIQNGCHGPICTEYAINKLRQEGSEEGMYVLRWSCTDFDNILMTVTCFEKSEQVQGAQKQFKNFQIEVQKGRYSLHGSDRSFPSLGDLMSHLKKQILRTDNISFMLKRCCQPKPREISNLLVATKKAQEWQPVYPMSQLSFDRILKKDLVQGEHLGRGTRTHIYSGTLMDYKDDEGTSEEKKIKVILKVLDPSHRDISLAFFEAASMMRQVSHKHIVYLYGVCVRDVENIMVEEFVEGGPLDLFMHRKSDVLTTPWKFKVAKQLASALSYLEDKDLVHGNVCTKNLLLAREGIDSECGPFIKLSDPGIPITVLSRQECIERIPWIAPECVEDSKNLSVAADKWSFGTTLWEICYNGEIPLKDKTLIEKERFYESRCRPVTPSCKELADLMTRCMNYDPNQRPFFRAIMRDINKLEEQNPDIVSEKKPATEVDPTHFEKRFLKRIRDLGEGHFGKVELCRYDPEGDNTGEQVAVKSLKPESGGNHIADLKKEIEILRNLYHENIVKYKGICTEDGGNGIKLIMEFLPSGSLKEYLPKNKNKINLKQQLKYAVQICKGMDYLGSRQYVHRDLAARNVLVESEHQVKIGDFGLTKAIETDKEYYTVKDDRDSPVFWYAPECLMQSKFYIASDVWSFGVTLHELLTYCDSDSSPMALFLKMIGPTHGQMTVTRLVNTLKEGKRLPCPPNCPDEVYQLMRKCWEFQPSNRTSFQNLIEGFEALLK

Consider `CCC(=O)c1cnc(Nc2cc(C(C)NC)ncn2)cc1Nc1cccc(-c2ncn(C)n2)c1OC` (configuration not stated) [US20230295119, Compound 9PPPP], for which the results for the 50% inhibitory concentration (IC50) in test [1], in test [2] and in test [3] were greater than 500 nM, greater than 500 nM and less than 5 nM, respectively.

For `CCC(=O)c1cnc(Nc2ccc(CN3CCN(C)CC3)nn2)cc1Nc1cccc(-c2ncn(C)n2)c1OC` [US20230295119, Compound 9PPP], the IC50 in test [1] and in test [2] was greater than 500 nM each time.

On to `CCC(=O)c1cnc(Nc2cnc(O[C@@H]3CCN(CC)C3)cn2)cc1Nc1cccc(-c2ncn(C)n2)c1OC` [US20230295119, Compound 18DDD], for which the IC50 in test [1], in test [2] and in test [4] was greater than 500 nM in each case.

For the compound `CCC(=O)c1cnc(Nc2cnc(OCCN3CCN(C)CC3)cn2)cc1Nc1cccc(-c2ncn(C)n2)c1OC` [US20230295119, Compound 18FFF], the IC50 in test [1] is greater than 500 nM; in test [2], greater than 500 nM; in test [4] it was greater than 500 nM; in test [3], less than 5 nM.
